From patent US4552882A, “7-(1-Pyrrolyl) derivatives of 1-ethyl-1,4-dihydro-4-oxoquinoline-3-carboxylic acids and 1-ethyl-1,4-dihydro-4-oxo-1,8-naphthyridine-3-carboxylic acids and their use as antimicrobial agents” (Provesan, SA, priority 1983, dated 1985)

Assay: in vivo
Settings: mouse, ip
Experimental: To determine this toxicity, C.F.L.P. strain albino mice of both sexes, weighing between 19 and 25 grams, have been used as experimental animals. After an 18 hour fast period with water "ad libitum" the derivatives which are the subjects of the present invention are administered intraperitoneally in 5% suspension in gum arabic. The volume of suspension administered has in all cases been 0.4 ml/20 grams (20 ml/kg), changing the concentration of the suspension according to the dose administered.
One hour after the administration of the derivatives, the animals are supplied with Panlab standard rat-mouse feed. The period of observation of mortality has been 7 days.

In the case of `CCn1cc(C(=O)O)c(=O)c2ccc(C)nc21` [Nalidixic acid, reference compound], the LD50 at 168 h is reported as 600 mg/kg.
